Read-outs that look alike come from different tables or passages of the source.
Experiments:
[1] = cited from earlier work
[2] = target: Aβ aggregates; conditions: cited from earlier work
[3] = Cytotoxicity MTT assay; assay type: cell-based, Human; conditions: human, HEK 293 cells, read-out: cell viability
Experimental: (§1) In vitro cytotoxicity studies were performed for DT(Ch)2 in the concentration range of 0.5–50 μg/mL against HEK 293 cell lines seeded in 96-well plates. The experimental procedure followed was in accordance with the previously reported literature ([32]). […] Cell cultures were grown in DMEM (Dulbecco’s modified eagle medium, high glucose) and the culture was supplemented with 1% penicillin streptomycin and 10% FBS (fetal bovine serum). The cells were incubated with different compound concentrations in a 5% CO2 incubator at 37°C. Following the addition of MTT [3-(4,5-dimethylthiazol-2-yl)-2,5-diphenyl-2H-tetrazolium bromide] to each cell (100 μL), the systems were incubated for an additional 4 h. The cell viability was reported in accordance with the mitochondrial activity measured via absorbance at 570 nm. The experiments were performed in triplicates.

[4] = system: HEK 293 cells; experiment: Cytotoxicity MTT assay; assay type: cell-based, Human; conditions: 0.5–50 μg/mL, after 48 h of incubation
Experimental: as §1

[5] = Hemolysis assay; assay type: cell-based; conditions: human, red blood cells (washed RBC pellet resuspended in PBS), pH 7.4; RBCs, 0.125–2 mg/mL of ligand
Experimental: In accordance with the previous literature, heparinized blood from healthy volunteers was used for the hemolysis assay ([33]). Blood serum was separated by centrifugation and the obtained RBC pellet was washed with PBS (pH = 7.4) repeatedly. The pellet was finally resuspended in PBS and added in equal amounts to different vials. Similarly, varying concentrations of the ligand in equal volume were incubated with the RBC pellet in the ratio of 8:2 at 37°C. The Triton X-100 and phosphate buffer saline as positive and negative control, respectively, were also incubated with RBCs under similar conditions. A total of 100 μL of solvent was centrifuged and removed at each time point: 15 min, 1, 2, 4, and 24 h. The absorbance of the supernatant was measured at 541 nm wavelength in a 96-well plate by a Synergy 2 Multi-Mode Reader (BioTek Instruments, United States). The experiments were carried out in triplicates and the extent of hemolysis was calculated according to the following formula:
Hemolysisratio=(λ(test)-λ(negativecontrol))/(λ(positivecontrol)-λ(negativecontrol))×100%

CNc1ccc(-c2nc3ccc(O)cc3s2)cc1 [PiB, Pittsburgh compound B]
ratio of brain2min/brain30min [1]: 12

CN(C)c1ccc(C=CC(=O)c2ccc(I)cc2)cc1 [^125I-DMIC]
Kd [2]: 4.2 nM

O=C([O-])CN(CCN(CC(=O)[O-])CC(=O)[O-])CCN(CC(=O)[O-])CC(=O)[O-].[99Tc+4] [^99mTc–DTPA]
brain uptake ([1]; after 30 min, known value, no reference given): 0.04%

CN(C)c1ccc(/C=C/C(=O)c2ccc(OCCNC(=O)CN(CCN(CCN(CC(=O)O)CC(=O)NCCOc3ccc(C(=O)/C=C/c4ccc(N(C)C)cc4)cc3)CC(=O)O)CC(=O)O)cc2)cc1 [DT(Ch)2, 6,9-bis(carboxymethyl)-14-(4-[(E)-3-(4-(dimethylamino)phenyl)acryloyl]phenoxy)-3-(2-[(2-(4-[(E)-3-(4-(dimethylamino)phenyl)acryloyl]phenoxy)ethyl)amino]-2-oxoethyl)-11-oxo-3,6,9,12-tetraazatetradecanoic acid]
viability ([3]; throughout the concentration range and observation time): ~85% | viability ([3]; up to 24 h): 88 to 95% | toxicity (MTT assay) [4]: < 17% | hemolysis [5]: < 5%
